Data on 8 molecules can be found in publication PMC12631982, “Expected and Unexpected “Guests” at the Active Site of Human Orotidine 5′-Monophosphate Decarboxylase” (Biochemistry, 2025).

Where “and” joins values, the source holds several entries; their conditions need not be identical. Equal values may be shown once. Entries after “also recorded” stand apart in the source; their conditions may differ. Read-outs that look alike come from different tables or passages of the source.

The target in experiment [1] is T1, human OMPDC (Homo sapiens, UniProt P11172).
T1 construct: Overexpression of human OMPDC in Escherichia coli; made in house; host or cells: Escherichia coli
In words: Thermodynamic ITC ligand binding to human OMPDC wild-type. Conditions: for binding detected by thermodynamic ITC: 25 °C; for ΔH (first binding phase, K D1) / ΔH (second binding phase, K D2): Sedphat analysis. As for the experimental part:
(§1) Steady-state kinetics of OMPDC conversion and thermodynamics of ligand binding were conducted using a PEAK-ITC instrument (Malvern Panalytical) in 20 mM HEPES/NaOH, pH 7.4, at 25 °C. The substrate OMP trisodium salt and the ligands UMP, GMP, XMP, and TMP were purchased from Sigma-Aldrich (purity >99%).
Isothermal titration calorimetry (ITC) is used to determine the dissociation constant (K D) of a protein–ligand interaction by measuring the heat released or absorbed during binding. In practice, the ligand is sequentially titrated into a solution containing the protein in the reaction cell. As the binding sites become saturated over time, no additional heat changes are detected. The resulting thermogram is then converted into a binding isotherm, which can be used to calculate all relevant thermodynamic parameters. Thereby, the (K D) follows the general reaction, where the enzyme (E), by addition of a ligand (L), forms an enzyme-ligand complex (EL) E+L↔KaEL
The following parameters for the binding experiments were used:
OMPDC with UMP: 195 μM OMPDC, 2.08 mM UMP, buffer (HEPES 0.02 M, pH 7.4), reference power ITC 8 μcal/s, stirring speed 750 rpm, cell temperature 25 °C, one injection of 0.4 μL and 18 injections of 2 μL UMP, 120 s spacing.*
OMPDC with 5-methyl OMP: 195 μM OMPDC, 4.61 mM 5-methyl OMP, buffer (HEPES 0.02 M, pH 7.4), reference power ITC 10 μcal/s, stirring speed 750 rpm, cell temperature 25 °C, 1 injection of 0.4 μL and 18 injections of 2 μL 5-methyl OMP, 120 s spacing.*
OMPDC with dTMP: 186 μM OMPDC, 5 mM dTMP, buffer (HEPES 0.02 M, pH 7.4), reference power ITC 8 μcal/s, stirring speed 750 rpm, cell temperature 25 °C, 1 injection of 0.4 μL and 18 injections of 2 μL dTMP, 120 s spacing.
OMPDC with XMP: 194 μM OMPDC, 1.5 mM XMP, buffer (HEPES 0.02 M, pH 7.4), reference power ITC 8 μcal/s, stirring speed 750 rpm, cell temperature 25 °C, 1 injection of 0.4 μL and 18 injections of 2 μL XMP 120 s spacing.*
OMPDC with YMP: 200 μM OMPDC, 2.03 mM YMP, buffer (HEPES 0.02 M, pH 7.4), reference power ITC 8 μcal/s, stirring speed 750 rpm, cell temperature 25 °C, 1 injection of 0.4 μL and 18 injections of 2 μL YMP, 120 s spacing.
OMPDC with CMP: 200 μM OMPDC, 1.80 mM CMP, buffer (HEPES 0.02 M, pH 7.4), reference power ITC 10 μcal/s, stirring speed 750 rpm, cell temperature 25 °C, 1 injection of 0.4 μL and 18 injections of 2 μL CMP, 120 s spacing.*
OMPDC with 2′-deoxy UMP: 211 μM OMPDC, 9.04 mM 2′-deoxy UMP, buffer (HEPES 0.02 M, pH 7.4), reference power ITC 10 μcal/s, stirring speed 750 rpm, cell temperature 25 °C, 1 injection of 0.4 μL and 18 injections of 2 μL 2′-deoxy UMP, 120 s spacing.
OMPDC with GMP: 184 μM OMPDC, 10 mM GMP, buffer (HEPES 0.02 M, pH 7.4), reference power ITC 8 μcal/s, stirring speed 750 rpm, cell temperature 25 °C, 1 injection of 0.4 μL and 18 injections of 2 μL GMP, 120 s spacing.
(§2) The raw files were analyzed using the software provided by the instrument manufacturer. Marked data sets (*) were integrated using NitPic version 1.2.7 and fitted with Sedphat version 14.0. Final graphs were created with OriginPro 2020.

Experiment [2] concerns the target T2, OMPDC Thr321Asn (Homo sapiens, UniProt P11172, T321N).
T2 construct: OMPDC Thr321Asn was generated via site-directed mutagenesis; made in house
In words: Thermodynamic ITC ligand binding to OMPDC variant Thr321Asn. As for the experimental part:
as §1
OMPDC T321N′ with dTMP: 211 μM OMPDC T321N′, 2 mM dTMP, buffer (HEPES 0.02 M, pH 7.4), reference power ITC 10 μcal/s, stirring speed 750 rpm, cell temperature 25 °C, 1 injection of 0.4 μL and 18 injections of 2 μL dTMP, 120 s spacing.
as §2

The target in experiment [3] is T2, OMPDC Thr321Asn. In words: Kinetic ITC with OMPDC variant Thr321Asn. In kind it is biochemical. On the procedure:
For steady-state kinetic analysis, 20 μM OMPDC and 1 mM OMP were used at a cell temperature of 25 °C. The reference power was set to 8 μcal/s, the stirring power to 750 rpm, and two injections of 10 μL each were performed. For competitive inhibition studies, the substrate concentration remained the same while the ligand concentration was varied.

Experiment [4] has as its target T1, human OMPDC. In words: ITC-based steady-state kinetics / activity assay of OMPDC. Conditions: wild-type. Format: biochemical. On the procedure:
as §1
For steady-state kinetic analysis, 20 μM OMPDC and 1 mM OMP were used at a cell temperature of 25 °C. The reference power was set to 8 μcal/s, the stirring power to 750 rpm, and two injections of 10 μL each were performed. For competitive inhibition studies, the substrate concentration remained the same while the ligand concentration was varied. The experiments are summarized below:
OMPDC with OMP and 5-methyl OMP: 70/100 μM OMPDC, 1 mM OMP, 5-methyl OMP (1 mM), buffer (HEPES 0.02 M, pH 7.4), reference power ITC 8 μcal/s, stirring speed 750 rpm, cell temperature 25 °C, 2 injections of 10 μL each.
OMPDC with OMP: 20 μM OMPDC, 1 mM OMP, buffer (HEPES 0.02 M, pH 7.4), reference power ITC 8 μcal/s, stirring speed 750 rpm, cell temperature 25 °C, 2 injections of 10 μL each.
The data sets were evaluated via Microsoft Excel, and the decarboxylation rates were fitted in OriginPro 2020 according to the Hill equation.

Experiment [5] has as its target T1, human OMPDC. In words: X-ray crystallography, soaking / cocrystallization of ligands. Conditions: wild-type, in crystallo. On the procedure:
OMPDC crystals were grown for at least 3 days at 20 °C using the hanging drop diffusion method with Crystalgen SuperClear Plates (Jena Bioscience) as previously described. , The crystals were gradually transferred to increasing concentrations of cryo-solution (100 mM Tris/HCl pH 8.0, 2 M (NH4)2SO4, 10 mM glutathione pH 8.0, 0.25–1 M L-proline). After the crystals were adjusted to 1 M L-proline cryo-solution, various ligands were used for soaking experiments. […] The crystals were flash-cooled in liquid nitrogen and stored at these temperatures until the diffraction experiments were conducted.
OMPDC was also cocrystallized with XMP, UMP, and GMP. For this, a final protein concentration of 4.5 mg/mL and 25 mM ligand were used in 20 mM HEPES/NaOH, pH 7.4. The solution was mixed in a 1 + 1 ratio with the reservoir solution. Plates were stored at 20 °C, and crystals grew overnight. After 1 week, crystals were transferred to cryo-solution supplemented with 25 mM XMP/UMP/GMP. The cocrystallized crystals were flash-cooled in liquid nitrogen and stored until use.
The structures of OMPDC with the different ligands were determined by processing the diffraction data with the XDS program suite. […]

Where [6] appears, read: ITC at 25 °C, 20 mM HEPES pH 7.4, wild-type, single dissociation constant, read-out: K D.
Where [7] appears, read: ITC at 25 °C, wild-type, first of two dissociation constants (Sedphat analysis), read-out: K D1.
The mark [8] stands for this setting: ITC at 25 °C, wild-type, second of two dissociation constants (Sedphat analysis), read-out: K D2.

On to `Cc1cn([C@H]2C[C@H](O)[C@@H](COP(=O)(O)O)O2)c(=O)[nH]c1=O` [dTMP, thymidine-5′-monophosphate], for which the Kd at human OMPDC [1] (setting [6]) was 119 µM. At human OMPDC [1] (ITC at 25 °C, wild-type), the “n (stoichiometry)” value came to 0.64 ± 0.03, the ΔG entry is “–5.37 ± 0.09 kcal/mol”, the ΔH result was “–4.74 ± 0.29 kcal/mol” and the “–TΔS” value is recorded as “–0.63 ± 0.88 kcal/mol”. Also, the Kd on human OMPDC [1] (ITC at 25 °C, wild-type, single dissociation constant, read-out: Dissociation constant (KD)) was found to be 118 µM. In addition, the Kd at OMPDC Thr321Asn [2] (ITC) was found to be 0.431 ± 0.044 µM. In addition, at OMPDC Thr321Asn [2] (ITC at 25 °C), the Kd was 0.43 ± 0.04 µM, the “n (stoichiometry)” value came out at 0.64 ± 0.02, the ΔG entry is on record as “–8.69 ± 0.08 kcal/mol” and the ΔH result is reported as “–14.3 ± 0.1 kcal/mol”. Moreover, the “–TΔS” value at OMPDC Thr321Asn [2] (ITC at 25 °C) amounted to 5.60 ± 0.06 kcal/mol.

`O=c1ccn([C@H]2C[C@H](O)[C@@H](COP(=O)(O)O)O2)c(=O)[nH]1` [2′-deoxy UMP, 2′-deoxy uridine 5′-monophosphate]: the “binding detected by thermodynamic ITC” value on human OMPDC [1] (wild-type) is given as “no binding”; at human OMPDC [1] (wild-type, listed as deoxy UMP) it was “No binding could be detected”.

In the case of `O=c1ccn([C@@H]2O[C@H](COP(=O)(O)O)[C@@H](O)[C@H]2O)c(=O)[nH]1` [UMP, uridine 5′-monophosphate], on human OMPDC [1] (ITC at 25 °C, wild-type), the “n (stoichiometry)” value turned out to be 0.98 ± 0.01; the “ΔH (first binding phase, K D1)” value is reported as “–1.03 ± 0.06 kcal/mol”; the “ΔH (second binding phase, K D2)” value is reported as “–2.1 ± 0.1 kcal/mol”. Also, on human OMPDC [1] (setting [7]), the Kd was determined as 2.6 ± 1.2 µM. In addition, the Kd on human OMPDC [1] (setting [8]) was 6.7 ± 0.8 µM. Besides, the Kd on human OMPDC [1] (ITC, wild-type, second of two dissociation constants, read-out: Dissociation constant KD2) came to 6.73 µM.

`O=c1[nH]c(=O)c2ncn([C@@H]3O[C@H](COP(=O)(O)O)[C@@H](O)[C@H]3O)c2[nH]1` [XMP, xanthosine-5′-monophosphate]: at human OMPDC [1] (ITC at 25 °C, wild-type), the “ΔH (first binding phase, K D1)” value was “–1.86 ± 0.10 kcal/mol”. Besides, on human OMPDC [1] (ITC at 25 °C, wild-type), the “ΔH (second binding phase, K D2)” value is recorded as “–5.57 ± 0.07 kcal/mol”. Besides, the Kd at human OMPDC [1] (setting [7]) was found to be 0.21 ± 0.03 µM; at human OMPDC [1] (setting [8]) it was 0.18 ± 0.02 µM; at human OMPDC [1] (ITC, wild-type, first of two dissociation constants, read-out: Dissociation constant KD1) it was 0.213 µM; at human OMPDC [1] (ITC, wild-type, second of two dissociation constants, read-out: K D2) it was 0.182 ± 0.018 µM.

For `O=C(O)c1cc(=O)[nH]c(=O)n1[C@H]1C[C@H](O)[C@@H](COP(=O)(O)O)O1` [2′-deoxy OMP], on OMPDC Thr321Asn [3], the enzymatic activity result was “too low to be reliably measured”. The enzymatic turnover entry on human OMPDC [4] was “no binding or turnover was detected”. Also, the “ligand bound in crystal structure” value on human OMPDC [5] is recorded as “does not bind”.

Turning to `Cc1c(C(=O)O)n(C2OC(COP(=O)(O)O)C(O)C2O)c(=O)[nH]c1=O` (centres unmarked) [5-MeOMP, 5-methyl OMP], the Kd at human OMPDC [1] (setting [6]) was 0.404 µM and 0.4 µM. At human OMPDC [1] (ITC at 25 °C, wild-type), the “n (stoichiometry)” value is reported as 1.54 ± 0.01, the ΔG result was “–8.78 ± 0.19 kcal/mol”, the ΔH entry is “–1.20 ± 0.03 kcal/mol” and the “–TΔS” value is “–7.58 ± 0.26 kcal/mol”. Also, on human OMPDC [4], the enzymatic turnover result was “unable to detect enzymatic turnover”.

In the case of `Nc1nc2c(ncn2[C@@H]2O[C@H](COP(=O)(O)O)[C@@H](O)[C@H]2O)c(=O)[nH]1` [GMP, guanosine-5′-monophosphate], the “binding detected by thermodynamic ITC” value at human OMPDC [1] (wild-type) was “No binding could be detected; also recorded: no measurable binding heat was detected; also recorded: did not bind at all”. Moreover, the “ligand bound in crystal structure” value on human OMPDC [5] was “no ligand was bound to the active site”.

Turning to `Nc1ccn([C@@H]2O[C@H](COP(=O)(O)O)[C@@H](O)[C@H]2O)c(=O)n1` [CMP, cytidine-5′-monophosphate], at human OMPDC [1] (ITC at 25 °C, wild-type), the “ΔH (first binding phase, K D1)” value is recorded as “–2.30 ± 0.08 kcal/mol” and the “ΔH (second binding phase, K D2)” value was “–7.08 ± 0.56 kcal/mol”. For the same molecule, the Kd on human OMPDC [1] (setting [7]) was determined as 4.73 ± 1.09 µM. Besides, the Kd on human OMPDC [1] (setting [8]) was determined as 8.33 ± 1.06 µM.
